Experimental findings from ChEMBL document CHEMBL1125340, “Inhibition of hog liver folylpolyglutamate synthetase by 5-substituted 5,8-dideaza analogues of folic acid bearing a terminal L-ornithine residue” (J Med Chem, 1992) are described below.

Structures are written as SMILES.

This test relates to Folylpolyglutamate synthase (Sus scrofa). In words: The ratio of Kinetic constant Vmax / Binding constant Km at homogenous Hog Liver Folyl polyglutamate Synthetase (FPGS).
With `NCCCC(NC(=O)c1ccc(CNc2ccc3nc(N)nc(O)c3c2F)cc1)C(=O)O` (centres undefined), the Ratio is 64. For `NCCCC(NC(=O)c1ccc(CNc2ccc3nc(N)nc(O)c3c2Cl)cc1)C(=O)O` (centres undefined) the value was 102. In the case of `NCCCC(NC(=O)c1ccc(NCc2ccc3nc(N)nc(O)c3c2C(F)(F)F)cc1)C(=O)O` (centres undefined), the Ratio is 121. Take `NCCCC(NC(=O)c1ccc(CNc2ccc3nc(N)nc(O)c3c2C(F)(F)F)cc1)C(=O)O` (centres undefined): the Ratio is 118.
